# Several values for one entry are separate records, joined by “and”; a condition that tells them apart may be missing. Identical values can stand only once.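 Protocol summary: plate cells (96-well), add compound at 5 concentrations, incubate 48 h, interpolate endpoints linearly. At the GI50, growth is halved.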 Activity calls are given as the source filed them. No stated cut-off is given here; in the data, active = GI50 up to about 1.1 µM and inactive = higher.
# Assays:
# Experiment in all cases: inhibition of tumour cell growth, NCI panel, 48 h
# [1] = test system: SR
# [2] = test system: UACC-62
# [3] = test system: NCI-H226
# [4] = test system: BT-549
# [5] = test system: HCC 2998
# [6] = test system: CCRF-CEM
# [7] = test system: MCF7
# [8] = test system: NCI-H23
# [9] = test system: SF-268
# [10] = test system: ACHN
# [11] = test system: 786-0
# [12] = test system: UACC-257
# [13] = test system: SK-MEL-2
# [14] = test system: SNB-75
# [15] = test system: K562
# [16] = test system: SF-539
# [17] = test system: OVCAR-4
# [18] = test system: CAKI-1
# [19] = test system: MDA-MB-435
# [20] = test system: NCI-H522
# [21] = test system: HOP-92
# [22] = test system: TK-10
# [23] = test system: RXF 393
# [24] = test system: A498
# [25] = test system: HCT-15
# [26] = test system: SK-MEL-28
# [27] = test system: EKVX
# [28] = test system: KM12
# [29] = test system: A549
# [30] = test system: OVCAR-5
# [31] = test system: HCT-116
# [32] = test system: MOLT-4
# [33] = test system: SK-OV-3
# [34] = test system: MDA-N
# [35] = test system: NCI/ADR-RES
# [36] = test system: U-251
# [37] = test system: M14
# [38] = test system: T47D
# [39] = test system: SW-620
# [40] = test system: NCI-H460
# [41] = test system: SN12C
# [42] = test system: Malme-3M
# [43] = test system: OVCAR-3
# [44] = test system: PC-3
# [45] = test system: HOP-62
# [46] = test system: OVCAR-8
# [47] = test system: COLO 205
# [48] = test system: DU-145
# [49] = test system: UO-31
# [50] = test system: LOX IMVI
# [51] = test system: HT-29
# [52] = test system: SF-295
# [53] = test system: MDA-MB-231
# [54] = test system: HL-60
# [55] = test system: SNB-19
# [56] = test system: IGROV-1
# [57] = test system: Hs-578T
# [58] = test system: SK-MEL-5
structure (smiles),measurement,setting,value
COc1ccc(N2C(=O)C3c4[nH]c5ccccc5c4C4c5ccccc5CC4C3C2=O)cc1 (stereo not drawn),GI50,[1],> 100 µM (inactive)
same,GI50,[2],> 100 µM (inactive)
same,GI50,[3],> 100 µM (inactive)
same,GI50,[4],> 100 µM (inactive)
same,GI50,[5],> 100 µM (inactive)
same,GI50,[6],> 100 µM (inactive)
same,GI50,[7],> 100 µM (inactive)
same,GI50,[8],> 100 µM (inactive)
same,GI50,[9],> 100 µM (inactive)
same,GI50,[10],> 100 µM (inactive)
same,GI50,[11],> 100 µM (inactive)
same,GI50,[12],> 100 µM (inactive)
same,GI50,[13],> 100 µM (inactive)
same,GI50,[14],> 100 µM (inactive)
same,GI50,[15],> 100 µM (inactive)
same,GI50,[16],> 100 µM (inactive)
same,GI50,[17],> 100 µM (inactive)
same,GI50,[18],> 100 µM (inactive)
same,GI50,[19],> 100 µM (inactive)
same,GI50,[20],> 100 µM (inactive)
same,GI50,[21],> 100 µM (inactive)
same,GI50,[22],> 100 µM (inactive)
same,GI50,[23],> 100 µM (inactive)
same,GI50,[24],> 100 µM (inactive)
same,GI50,[25],> 100 µM
same,GI50,[26],> 100 µM (inactive)
same,GI50,[27],> 100 µM (inactive)
same,GI50,[28],> 100 µM (inactive)
same,GI50,[29],> 100 µM (inactive)
same,GI50,[30],> 100 µM (inactive)
same,GI50,[31],> 100 µM (inactive)
same,GI50,[32],> 100 µM (inactive)
same,GI50,[33],> 100 µM (inactive)
same,GI50,[34],> 100 µM (inactive)
same,GI50,[35],> 100 µM (inactive)
same,GI50,[36],> 100 µM (inactive)
same,GI50,[37],> 100 µM (inactive)
same,GI50,[38],> 100 µM (inactive)
same,GI50,[39],> 100 µM (inactive)
same,GI50,[40],> 100 µM (inactive)
same,GI50,[41],> 100 µM (inactive)
same,GI50,[42],> 100 µM (inactive)
same,GI50,[43],> 100 µM (inactive)
same,GI50,[44],> 100 µM (inactive)
same,GI50,[45],> 100 µM (inactive)
same,GI50,[46],> 100 µM (inactive)
same,GI50,[47],> 100 µM (inactive)
same,GI50,[48],> 100 µM (inactive)
same,GI50,[49],> 100 µM (inactive)
same,GI50,[50],> 100 µM (inactive)
same,GI50,[51],> 100 µM (inactive)
same,GI50,[52],> 100 µM (inactive)
same,GI50,[53],> 100 µM (inactive)
same,GI50,[54],> 100 µM (inactive)
same,GI50,[55],> 100 µM (inactive)
same,GI50,[56],> 100 µM (inactive)
COc1cc2c3c(c4cc(OC)c(OC)cc4c2cc1OC)CN1CCC[C@H]1C3 [(S)-TYLOPHORINE],GI50,[3],0.0294 µM (active)
same,GI50,[4],22.5 nM (active) and 39.5 nM (active)
same,GI50,[7],0.0107 µM (active)
same,GI50,[10],< 10 nM (active) and 14.5 nM (active)
same,GI50,[12],14.3 nM (active) and 26.6 nM (active)
same,GI50,[18],< 16.3 nM (active) and 25.8 nM (active)
same,GI50,[20],56.6 nM (active) and < 40.6 nM (active)
same,GI50,[22],< 16.7 nM (active) and 19.4 nM (active)
same,GI50,[24],< 0.01 µM (active)
same,GI50,[26],< 13.7 nM (active) and 9.06 nM (active)
same,GI50,[29],< 10 nM (active) and 13.2 nM (active)
same,GI50,[30],< 12.1 nM (active) and 16.6 nM (active)
same,GI50,[31],< 10 nM (active) and 17.9 nM (active)
same,GI50,[33],< 12.2 nM (active) and 12.6 nM (active)
same,GI50,[43],58.9 nM (active) and 42.3 nM (active)
same,GI50,[57],0.404 µM (active)
same,GI50,[49],39.9 nM (active) and < 20.8 nM (active)
same,GI50,[50],< 10 nM (active) and 11.9 nM (active)
same,GI50,[53],< 0.0109 µM (active)
same,GI50,[55],< 10 nM (active) and 9.35 nM (active)
N#C[BH2-][n+]1cn(C2CC(O)C(COP(=O)(O)OC3CC(n4cnc5c(N)ncnc54)OC3CO)O2)c2nc(N)[nH]c(=O)c21 (stereo not drawn),GI50,[1],> 100 µM (inactive)
same,GI50,[2],> 100 µM (inactive)
same,GI50,[3],> 100 µM (inactive)
same,GI50,[4],> 100 µM (inactive)
same,GI50,[5],> 100 µM (inactive)
same,GI50,[6],> 100 µM (inactive)
same,GI50,[7],> 100 µM (inactive)
same,GI50,[8],> 100 µM (inactive)
same,GI50,[9],> 100 µM (inactive)
same,GI50,[10],> 100 µM (inactive)
same,GI50,[11],> 100 µM (inactive)
same,GI50,[12],> 100 µM (inactive)
same,GI50,[13],> 100 µM (inactive)
same,GI50,[14],> 100 µM (inactive)
same,GI50,[16],> 100 µM (inactive)
same,GI50,[17],> 100 µM (inactive)
same,GI50,[58],> 100 µM (inactive)
same,GI50,[18],> 100 µM (inactive)
same,GI50,[19],> 100 µM (inactive)
same,GI50,[20],> 100 µM (inactive)
same,GI50,[21],> 100 µM (inactive)
same,GI50,[23],> 100 µM (inactive)
same,GI50,[24],> 100 µM (inactive)
same,GI50,[25],> 100 µM
same,GI50,[26],> 100 µM (inactive)
same,GI50,[27],> 100 µM (inactive)
same,GI50,[28],> 100 µM (inactive)
same,GI50,[29],> 100 µM (inactive)
same,GI50,[30],> 100 µM (inactive)
same,GI50,[31],> 100 µM (inactive)
same,GI50,[34],> 100 µM (inactive)
same,GI50,[35],> 100 µM (inactive)
same,GI50,[36],> 100 µM (inactive)
same,GI50,[37],> 100 µM (inactive)
same,GI50,[38],> 100 µM (inactive)
same,GI50,[39],> 100 µM (inactive)
same,GI50,[40],> 100 µM (inactive)
same,GI50,[41],> 100 µM (inactive)
same,GI50,[42],> 100 µM (inactive)
same,GI50,[43],> 100 µM (inactive)
same,GI50,[44],> 100 µM (inactive)
same,GI50,[45],> 100 µM (inactive)
same,GI50,[46],> 100 µM (inactive)
same,GI50,[47],> 100 µM (inactive)
same,GI50,[48],> 100 µM (inactive)
same,GI50,[49],> 100 µM (inactive)
same,GI50,[51],> 100 µM (inactive)
same,GI50,[52],> 100 µM (inactive)
same,GI50,[53],> 100 µM (inactive)
same,GI50,[54],> 100 µM (inactive)
same,GI50,[55],> 100 µM (inactive)
same,GI50,[56],> 100 µM (inactive)
